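Where inhibition never reached the appropriate level, the endpoint shown equals the highest concentration tested. Otherwise, values were interpolated linearly from a five-concentration, 48-hour dose response in 96-well plates. GI50: concentration for 50% inhibition of growth. TGI: concentration producing complete growth inhibition.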
What was measured:
Assay in all cases: DTP human tumour cell line panel, 48 h
NCI-H23 lung = system: NCI-H23 lung
OVCAR-3 ovarian = system: OVCAR-3 ovarian
SW-620 colon = system: SW-620 colon
PC-3 prostate = system: PC-3 prostate
HCT-15 colon = system: HCT-15 colon
786-0 renal = system: 786-0 renal
U251 CNS = system: U251 CNS
TK-10 renal = system: TK-10 renal
A549 NSCLC = system: A549 NSCLC
KM12 colon = system: KM12 colon

Row | Structure (SMILES) | GI50 (NCI-H23 lung) | TGI (NCI-H23 lung) | GI50 (OVCAR-3 ovarian) | TGI (OVCAR-3 ovarian) | GI50 (SW-620 colon) | TGI (SW-620 colon) | GI50 (PC-3 prostate) | TGI (PC-3 prostate) | GI50 (HCT-15 colon) | TGI (HCT-15 colon) | GI50 (786-0 renal) | TGI (786-0 renal) | GI50 (U251 CNS) | TGI (U251 CNS) | GI50 (TK-10 renal) | TGI (TK-10 renal) | GI50 (A549 NSCLC) | TGI (A549 NSCLC) | GI50 (KM12 colon) | TGI (KM12 colon)
1 | COc1ccc(CCN2CCC(CN(C)Cc3cnn(-c4ccccc4)c3)CC2)cc1 | 29.8 µM | > 100 µM | 20.4 µM | 52.4 µM | 16.5 µM | 33.6 µM | 25.1 µM | > 100 µM | 4.49 µM | 18.5 µM | 12 µM | 24.6 µM | 13 µM | 27 µM | 16.3 µM | 32.6 µM | 19.4 µM | 48.9 µM | 15.4 µM | 30.8 µM
2 | O=Cc1ccc(-c2ccc(-c3nc4ccccc4s3)cc2)s1 | 84.2 µM | > 100 µM | 27.2 µM | 98.3 µM | 56.4 µM | > 100 µM | 28.7 µM | > 100 µM | 39.8 µM | > 100 µM | 51.7 µM | > 100 µM | 51.9 µM | > 100 µM | 70.2 µM | > 100 µM | > 100 µM | > 100 µM | 38.4 µM | > 100 µM
3 | CN(CCC(=O)/C(=C\c1ccccc1)c1ccc(Cl)cc1)Cc1ccccc1 | 2.94 µM | 8.62 µM | 2.03 µM | 5.04 µM | 2.63 µM | 7.74 µM | 2.93 µM | 9.49 µM | 2.42 µM | 7.05 µM | 2.03 µM | 4.1 µM | 1.9 µM | 4.35 µM | 2.34 µM | 5.43 µM | 12.8 µM | 31.9 µM | 3.07 µM | 11 µM
4 | CC(=O)Nc1n[n+]([O-])c2cc(C)ccc2[n+]1[O-] | – | 9.32 µM | – | 7.77 µM | – | 17.5 µM | – | 14.8 µM | – | 14.9 µM | – | 17.5 µM | – | 14.2 µM | – | 58.1 µM | – | 12.3 µM | – | 11.3 µM
5 | COc1cc2c(c(OC)c1OC)-c1ccc(N=NC(N)=S)c(=O)cc1[C@@H](NC(C)=O)CC2 | 0.347 µM | > 100 µM | 0.263 µM | 0.642 µM | 0.421 µM | > 100 µM | 0.617 µM | > 100 µM | 6 µM | > 100 µM | 1.69 µM | – | 0.426 µM | > 100 µM | 9.01 µM | > 100 µM | 3.63 µM | > 100 µM | 0.394 µM | –
6 | COc1ccc(-c2csc(NC(=O)CN3CCN(c4cc5c(cc4F)c(=O)c(C(=O)O)cn5C4CC4)CC3)n2)cc1 | 2.9 µM | > 100 µM | 3.86 µM | > 100 µM | 3.9 µM | > 100 µM | 3.82 µM | > 100 µM | 3.23 µM | > 100 µM | 3.6 µM | 31.1 µM | 3.03 µM | 13.9 µM | 4.62 µM | 22.9 µM | 3.47 µM | > 100 µM | 3.37 µM | > 100 µM
7 | CCCCCCNCc1cc(C(C)(C)C)cc(CNCCCCCC)c1O | 1.71 µM | 3.29 µM | 1.73 µM | 3.15 µM | 1.66 µM | 3.1 µM | 1.53 µM | 2.9 µM | 1.63 µM | 3.1 µM | 1.77 µM | 3.26 µM | 1.57 µM | 2.91 µM | 1.86 µM | 3.3 µM | 1.71 µM | 3.08 µM | 1.82 µM | 3.3 µM
8 | Cc1cc(Cl)ccc1C(=O)c1ccc2ccccc2c1C(=O)O | – | > 100 µM | – | > 100 µM | – | > 100 µM | – | > 100 µM | – | > 100 µM | – | > 100 µM | – | > 100 µM | – | > 100 µM | – | > 100 µM | – | > 100 µM
9 | CCC(C)C(=O)OCC(=O)c1ccc(-c2ccccc2)cc1 (stereo not drawn) | – | > 100 µM | – | > 100 µM | – | > 100 µM | – | > 100 µM | – | 43.3 µM | – | > 100 µM | – | > 100 µM | – | > 100 µM | – | > 100 µM | – | > 100 µM
10 | C=Cn1c([N+](=O)[O-])cnc1/C=C/c1ccc(C(=O)OCCN2CCOCC2)cc1 | – | > 100 µM | – | > 100 µM | – | > 100 µM | – | > 100 µM | – | > 100 µM | – | > 100 µM | – | > 100 µM | – | > 100 µM | – | > 100 µM | – | > 100 µM

— PubChem BioAssay (NCI)
